# Assay results reported in article PMC6812009, “Covalent Aurora A regulation by the metabolic integrator coenzyme A” (Redox Biology, 2019).
# What was measured:
# [1] = molecular target: T1, Cys290Ala Aurora A mutant (Homo sapiens, UniProt O14965, C290A); test: In vitro CoAlation assay; format: binding
# T1 construct: For enzyme and DSF assays, full-length human Aurora A and Aurora B and 1–43 TPX2 were produced; made in house; host or cells: E. coli BL21 (DE3) pLysS
# Procedure: (§1) For CoAlation assays, 0.5 μg of purified recombinant preparations of wild type and mutant forms of His-Aurora A (Cys290Ala; Cys393Ala, Cys290/393Ala, Thr217Glu) and His-Aurora B (Glu161Thr) were incubated with a mixture of oxidised and reduced forms of CoA (CoASH and CoASSCoA, 1 mM final) in 20 mM Tris-HCl, pH 7.5 for 30 min at RT. The reaction was stopped by adding SDS gel-loading buffer without DTT, but containing 10 mM NEM. To examine whether binding of the 3′-phosphate ADP moiety of CoA to the Aurora A ATP binding-pocket co-ordinates the pantetheine thiol for disulfide bond formation with Cys 290, the in vitro CoAlation assay was carried out with 100 μM CoA and increasing concentrations of ATP (0–10 mM).
# [2] = molecular target: Aurora B (Homo sapiens, UniProt Q96GD4); test: In vitro CoAlation assay; format: binding; details: optimal Aurora A assay conditions
# Procedure: as §1
# [3] = molecular target: T2, Cys290/393Ala Aurora A mutant (Homo sapiens, UniProt O14965, C290A/C393A); test: In vitro CoAlation assay; format: binding
# T2 construct: made in house
# Procedure: as §1
# [4] = molecular target: T3, Thr217Glu mutant of Aurora A (Homo sapiens, UniProt O14965, T217E); test: In vitro CoAlation assay; format: binding
# T3 construct: For enzyme and DSF assays, full-length human Aurora A and Aurora B and 1–43 TPX2 were produced; made in house; host or cells: E. coli
# Procedure: as §1
# [5] = molecular target: T4, wild-type Aurora A (Homo sapiens, UniProt O14965); test: In vitro CoAlation assay; format: binding
# T4 construct: For enzyme and DSF assays, full-length human Aurora A and Aurora B and 1–43 TPX2 were produced; made in house; host or cells: E. coli
# Procedure: as §1
# [6] = molecular target: T5, Aurora B mutant (Homo sapiens, UniProt Q96GD4, E161T); test: In vitro CoAlation assay; format: binding
# T5 construct: For enzyme and DSF assays, full-length human Aurora A and Aurora B and 1–43 TPX2 were produced; made in house; host or cells: E. coli BL21 (DE3) pLysS
# Procedure: as §1
# [7] = system: VEGFR; test: Kinase profiling screen (radioactive filter-binding assay); format: biochemical, human; details: 100 μM compound, 20 μM ATP
# Procedure: Profiling of 117 protein kinases with CoA, dpCoA and ADP was carried out at the International Centre for Protein Kinase Profiling at the University of Dundee. Each compound was tested in vitro, in duplicate, at 100 μM final concentration using recombinant kinases, model substrates and optimal concentrations of ATP. Bacterially expressed full-length His-Aurora A was used to determine the IC50 value for CoA (in the presence or absence of DTT), dpCoA, ADP and desulfo-CoA. The assay was performed in the presence of 5 μM competing ATP. To examine whether the inhibitory effect of CoA on Aurora A is modulated by TPX2, IC50 values for CoA were also generated in the presence and absence of 1 μg TPX2 (residues 1–43) fragment.
# [8] = molecular target: T6, kinase-dead D274N (inactive) Aurora A (Homo sapiens, UniProt O14965, D274N); test: Thermal shift assay (differential scanning fluorimetry); format: binding; details: 5 mM ATP or 5 mM CoA; CoA DTT-dependent
# T6 construct: For enzyme and DSF assays, full-length human Aurora A and Aurora B and 1–43 TPX2 were produced; 6His (N); made in house; host or cells: E. coli
# Procedure: (§2) Asp274Asn and Thr217Glu Aurora A mutants were generated by PCR-site directed mutagenesis, expressed and purified as described previously. Cys290Ala Aurora A was generated using standard procedures, and purified as described.
# (§3) Thermal-shift assays were performed with a StepOnePlus Real-Time PCR machine (Life Technologies) using Sypro-Orange dye (Invitrogen) and thermal ramping (0.3 °C in step intervals between 25 and 94 °C). All proteins were diluted to a final concentration of 5 μM in 50 mM Tris/HCl, pH 7.4 and 100 mM NaCl in the presence or absence of the indicated concentrations of ligand (final DMSO concentration no higher than 4 % v/v). CoA, dephosphoCoA or kinase inhibitors diluted from 10 mM DMSO stocks were assayed as described previously. Normalized data were processed using the Boltzmann equation to generate sigmoidal denaturation curves, and average Tm/ΔTm values calculated as previously described using GraphPad Prism software.
# [9] = molecular target: T7, T217E Aurora A (Homo sapiens, UniProt O14965, T217E); test: as above; format: binding; details: 5 mM ATP, 5 mM CoA or 0.1 mM MLN8237
# T7 construct: For enzyme and DSF assays, full-length human Aurora A and Aurora B and 1–43 TPX2 were produced; made in house; host or cells: E. coli
# T7 sequence (O14965 1-403 T217E): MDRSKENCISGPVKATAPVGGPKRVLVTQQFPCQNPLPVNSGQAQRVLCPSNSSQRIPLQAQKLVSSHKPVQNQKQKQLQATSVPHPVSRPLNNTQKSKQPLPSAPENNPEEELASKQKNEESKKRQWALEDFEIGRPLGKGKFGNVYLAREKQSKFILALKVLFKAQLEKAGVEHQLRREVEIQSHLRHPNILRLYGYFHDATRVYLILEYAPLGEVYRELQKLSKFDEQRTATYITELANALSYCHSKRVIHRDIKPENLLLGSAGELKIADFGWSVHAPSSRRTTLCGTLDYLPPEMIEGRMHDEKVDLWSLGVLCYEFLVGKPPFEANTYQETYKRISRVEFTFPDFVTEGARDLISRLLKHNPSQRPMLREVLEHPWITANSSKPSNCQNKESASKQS
# Procedure: as §2, §3
# T1 sequence (O14965 whole entry C290A): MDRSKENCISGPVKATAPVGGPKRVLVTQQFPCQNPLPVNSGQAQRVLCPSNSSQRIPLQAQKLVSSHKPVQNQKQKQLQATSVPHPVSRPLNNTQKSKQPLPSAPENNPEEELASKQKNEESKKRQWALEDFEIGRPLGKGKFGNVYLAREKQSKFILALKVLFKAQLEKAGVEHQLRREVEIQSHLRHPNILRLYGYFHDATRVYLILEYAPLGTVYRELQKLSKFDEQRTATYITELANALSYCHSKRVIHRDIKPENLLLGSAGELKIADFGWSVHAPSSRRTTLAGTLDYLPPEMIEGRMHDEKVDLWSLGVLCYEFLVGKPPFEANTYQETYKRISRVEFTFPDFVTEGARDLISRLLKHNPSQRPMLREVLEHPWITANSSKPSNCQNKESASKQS
# T6 sequence (O14965 whole entry D274N): as the sequence (O14965 whole entry C290A) above, with D274N, A290C counted along it
# T5 sequence (Q96GD4 whole entry E161T): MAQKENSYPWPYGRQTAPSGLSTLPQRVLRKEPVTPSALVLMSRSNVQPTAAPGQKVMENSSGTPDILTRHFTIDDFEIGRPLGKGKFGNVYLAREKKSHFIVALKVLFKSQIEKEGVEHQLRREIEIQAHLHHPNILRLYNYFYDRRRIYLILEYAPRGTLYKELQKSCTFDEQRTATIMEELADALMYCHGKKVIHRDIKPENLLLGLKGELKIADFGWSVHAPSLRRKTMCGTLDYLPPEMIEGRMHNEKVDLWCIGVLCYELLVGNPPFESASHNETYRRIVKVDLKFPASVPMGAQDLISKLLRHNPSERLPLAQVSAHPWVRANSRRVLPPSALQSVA
# T4 sequence (O14965 whole entry): as the sequence (O14965 whole entry C290A) above, with A290C counted along it
# T2 sequence (O14965 whole entry C290A/C393A): as the sequence (O14965 whole entry C290A) above, with C393A counted along it
# Chain of Aurora B (Q96GD4 whole entry): as the sequence (Q96GD4 whole entry E161T) above, with T161E counted along it
structure (smiles),measurement,setting,value
"CC(C)(COP(=O)(O)OP(=O)(O)OC[C@H]1O[C@@H](n2cnc3c(N)ncnc32)[C@H](O)[C@@H]1OP(=O)(O)O)[C@@H](O)C(=O)NCCC(=O)NCCS [CoA, Coenzyme A]",Reduction of covalent modification by CoA in comparison to wild-type Aurora A,[1],> 95%
same,In vitro CoAlation of Aurora B,[2],CoAlated at an extremely low level
same,Covalent modification (binding) by CoA,[3],no binding was detected
same,CoA binding compared to the wild-type kinase,[4],significantly reduced CoA binding
same,In vitro CoAlation of Aurora A,[5],strong CoAlation
same,CoA binding (in vitro CoAlation),[6],strong binding
same,"Kinase activity, % of activity in the absence of inhibitor",[7],81.0%
same,Ligand interaction by thermal shift,[8],still able to interact
same,Ligand-induced thermal shift,[9],completely abolished
